Measurements: patent publication US20200352950A1, “Novel method of treating dystonia” (KOREA ADVANCED INSTITUTE OF SCIENCE AND TECHNOLOGY, priority 2017, published 2020)
“Also recorded” adds a separate entry of the source.

Legend:
[1] = system: CACNA1Atot/tot mice (tottering mice); experiment: EMG cross correlation between tibialis anterior and gastrocnemius muscles of tottering mice; format: in vivo; settings: FIG. 1G; stressed environment; compared to control group
Description: Electrodes (A-M system, USA) were surgically inserted into the gastrocnemius (GS) and tibialis anterior (TA) muscle for EMG recording, respectively. The electrodes were made using multiple strands of stainless-steel wires attached to each other and coated with Teflon. After shaving the hair of the right hind leg and behind the neck, a small incision was formed in the skin of the dorsal neck area. Four sets of recording electrodes were connected from the neck incision to the muscles under the skin. The EMG wires were wired under the skin and connected to a connector fixed to the skull. The low impedance of the exposed end of the wires allows the capture of electrical signals that have passed through relatively long distances (Pearson et al., J. Neurosci. Methods, 148 (1): 36-42, 2005). The EMG signals from the electrodes were sampled at 10 kHz and digitized with MiniDigi 1A (Axon Instrument, USA). Raw traces were analyzed using Clampfit 9.2 (Axon Instrument, USA). The cross correlation was calculated by using the standard of NeuroExplorer (Ver. 4, Nex Technologies, USA). […] The cross correlation indicates the degree of EMG overlap for a certain period in two muscles (TA and GS), and is a measure for judging whether the dystonia symptoms occur simultaneously in two muscles. […] That is, the greater the cross correlation value (Cross Corr.), which is the Y-axis value when the signal between each other is 0 ms (when contracted at the same time), the more severe the dystonia symptoms that the two muscles contract at the same time. The unit of the Y axis, AU, is a relative cross correlation value when the control is set to 1 which is an arbitrary unit.

[2] = system: calcium ion concentration in the cerebellum; experiment: Real-time GCaMP6 fluorescence measurement of calcium ion concentration in the cerebellum of tottering mice; format: in vivo; settings: FIG. 4E; stress environment
Protocol: In order to analyze the correlation between the degree of dystonia symptoms and the concentration of calcium ions in neurons, optogenetic model animals were prepared. Particularly, for a photometric system with a polarization-maintaining single-mode optical fiber, AAV2/9-CAG-FLEX-GCaMP6m (zadmehr et al., Cell, 164: 617-631, 2016) and AAV2/9-CMV-Cre (Gompf et al., Front. Behav. Neurosci. 9: 152, 2015) viral vectors were injected unilaterally into 0.25 μl each of the fastigial nucleus of the CACNA1A^tot/tot mouse through stereotaxic surgery. The virus injection was carried out 4 weeks before the experiment. […] For the fluorescence measurement, a TCSPC-based light measurement system (Becker & Hickel, Germany) was used.
The change in calcium signaling in the cerebellum is possible by transduction of a gene encoding the calcium sensor protein GCaMP6 into the cerebellum of the dystonia model mouse, and then measuring the intensity of fluorescence of the GCaMP6 protein bound to calcium ions. […] The present inventors performed real-time fluorescence analysis to analyze the correlation between dystonia symptoms and calcium ion concentration in nerve tissues in the topical transduction tottering mice prepared in Example 2. […] After the pulse laser irradiation, 509 nm wavelength fluorescence was measured using a TCSPC-based optical measurement system (Becker & Hickl, Germany). […]

[3] = system: CACNA1Atot/tot mice (tottering mice); experiment: Stress-induced dystonia in tottering mice in open field box (attack event number, dystonia score); format: in vivo; settings: for dystonia symptoms, dose-dependent effect: FIG. 3A; for degree of relaxation of dystonia (number of dystonia events, dystonia score): FIGS. 3B, 3C, i.p., MDL100907 1 or 2 mg/kg, pimavanserin 1.5 mg/kg, ritanserin 2 mg/kg, glemanserin 2 mg/kg, nelotanserin 1 mg/kg, compared to the control group
5-HT2A receptor = 5-HT2A receptor (Homo sapiens, UniProt P28223); settings: cited from earlier work
[4] = system: CACNA1Atot/tot mice (tottering mice); experiment: Stress-induced dystonia in tottering mice in open field box (attack event number, dystonia score); format: in vivo; settings: FIG. 1F; i.p. 30 min before test; Way100135 10 mg/kg, MDL100907 1 mg/kg, ondansetron 1 mg/kg; open field box 30 min
Protocol: The 7-8 weeks old CACNA1Atot/tot mice (Fletcher, Cell, 87 (4): 607-617, 1996, The Jackson Laboratory, Stock No: 000544) were selected kept and dealt complied with the regulation (protocol number KA2015-05) of Institutional Animal Care and Use Committee of the Korea Advanced Institute of Science and Technology (KAIST). The mice remained freely accessible to water and feed, and the light-dark cycle was 12/12 hours. Behavioral tests were performed 4 weeks after the viral transduction. […]
The drugs were dissolved in physiological saline and administrated […] to the tottering animal prepared by the Examples 2 and kept in the controlled environment of 12/12 hour light-dark cycle. […] The behavior test was performed 30 minutes after drug administration, and the experimental animals were acclimated in the home for 30 minutes and moved to an open field box, they were exposed to a stressed environment by leaving them in the open field box for 30 min, and the symptoms of dystonia were measured. The symptoms of dystonia and its severity were calculated using a 5-point scale dystonia score as follows: 0=normal behavior, 1=abnormal motor behavior, no myotonic posture, 2=minor dyskinesia, showing dystonia-like psture when disturbed, 3=moderate motor disability, frequent spontaneous myotonic posture, 4=severe motor disability, and persistent myotonic posture.

Sequence of 5-HT2A receptor (P28223 whole entry): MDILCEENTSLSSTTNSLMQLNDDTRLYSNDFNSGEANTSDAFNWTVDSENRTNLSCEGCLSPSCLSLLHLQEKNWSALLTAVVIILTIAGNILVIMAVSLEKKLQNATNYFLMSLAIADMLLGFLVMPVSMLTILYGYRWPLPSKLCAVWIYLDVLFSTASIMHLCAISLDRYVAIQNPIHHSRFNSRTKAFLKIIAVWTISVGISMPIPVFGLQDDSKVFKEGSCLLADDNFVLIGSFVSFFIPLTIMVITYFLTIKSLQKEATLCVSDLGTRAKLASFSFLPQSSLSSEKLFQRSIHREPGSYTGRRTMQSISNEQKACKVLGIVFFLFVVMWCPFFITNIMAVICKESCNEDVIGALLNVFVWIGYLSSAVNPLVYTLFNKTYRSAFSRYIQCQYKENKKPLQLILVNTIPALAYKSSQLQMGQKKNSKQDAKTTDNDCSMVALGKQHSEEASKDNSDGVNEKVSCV

Row | SMILES | EMG cross correlation (TA and GS muscles) [1] | degree of relaxation of dystonia (number of dystonia events, dystonia score) [3] | Ki (5-HT2A receptor; 5-HT2A receptor) [nM] | further results
1 | COc1cccc([C@H](O)C2CCN(CCc3ccc(F)cc3)CC2)c1OC [Volinanserin] | the correlation disappeared | showed no dystonia paralysis; also recorded: reduced symptoms of dystonia compared to Glemanserin |  | increase in GCaMP6 fluorescence signal (ΔF/F) in cerebellum after moving to open field box [2]: reduced to the level when staying at the home; dystonia symptoms, dose-dependent effect ([3]; 0.1 mg/kg): dystonia symptoms were significantly suppressed; dystonia symptoms, dose-dependent effect ([3]; 2 mg/kg rather than 1 mg/kg): symptoms were slightly alleviated
2 | COc1ccc(CC(=O)N(Cc2ccc(C)cc2)C2CCN(C)CC2)cc1 [AC-90179] |  |  | 2.1 ± 0.2 | 
3 | Cc1nccn1CC1CCc2c(c3ccccc3n2C)C1=O (stereo not shown) [ondansetron] | there is no difference |  |  | symptoms of dystonia (attack event number and muscle dysfunction index) [4]: did not reduce symptoms of dystonia at all
4 | CC(CCN1CCN(c2ccc(F)cc2)CC1)NC(=O)c1cccnc1 (stereo not shown) [Niaprazine] |  |  | 75 | pKi (5-HT2A receptor; 5-HT2A receptor): 7.61 ± 0.18
5 | OCCOCCN1CCN(C(c2ccccc2)c2ccc(Cl)cc2)CC1 (stereo not shown) [Hydroxyzine] |  |  |  | IC50 (5-HT2A receptor): 170 nM
6 | OC(c1ccccc1)C1CCN(CCc2ccccc2)CC1 (stereo not shown) [Glemanserin] |  | showed no significant effect |  | IC50 (5-HT2A receptor): 6.5 ± 2 nM
7 | COc1ccccc1N1CCN(CC(C(=O)NC(C)(C)C)c2ccccc2)CC1 (stereo not shown) [Way100135] | there is no difference |  |  | symptoms of dystonia (attack event number and muscle dysfunction index) [4]: did not reduce symptoms of dystonia at all
8 | CC(C)COc1ccc(CNC(=O)N(Cc2ccc(F)cc2)C2CCN(C)CC2)cc1 [Pimavanserin] |  | showed no dystonia paralysis; also recorded: reduced symptoms of dystonia compared to Glemanserin |  | 
9 | COc1ccc(NC(=O)Nc2ccc(F)cc2F)cc1-c1c(Br)cnn1C [Nelotanserin] |  | showed no dystonia paralysis | 0.4 ± 0.07 | 
10 | Cc1nc2sccn2c(=O)c1CCN1CCC(=C(c2ccc(F)cc2)c2ccc(F)cc2)CC1 [Ritanserin] |  | showed no dystonia paralysis |  | 
